Measurements reported in patent EP1561465A2, “Methods of use of fluoroquinolone compounds against bacteria” (LG Life Sciences, Ltd., priority 1999, dated 2001).
≈ marks a conversion by molar mass, not a printed value. Read-outs that look alike come from different tables or passages of the source.

Key:
Type in all cases: cell-based
Escherichia coli = test: MIC by agar dilution (NCCLS), 322 nosocomial Gram negative isolates, Athens 1998; details: n = 57 isolates
Enterococcus faecalis = test: MIC by agar dilution (NCCLS), 411 isolates Buenos Aires 1998-99; details: Enterococcus faecalis (n = 48)
[1] = test system: Gram negative anaerobic pathogens and facultative anaerobic pathogens; test: MIC by agar dilution, Brucella HK agar with 5% laked sheep blood, anaerobic reference strains
Moraxella catarrhalis = test: MIC by NCCLS reference broth microdilution, 450 respiratory tract pathogens
Salmonella spp. = test: MIC by agar dilution (NCCLS M7-A4), 288 enteropathogenic isolates, gemifloxacin and 15 other antimicrobials
Shigella spp. = test: MIC by agar dilution (NCCLS M7-A4), 288 enteropathogenic isolates, eight quinolones; details: Shigella spp. (n = 21)
Providencia rettgeri = test: MIC by NCCLS broth microdilution, 1100 Japanese clinical isolates 1997-1998; details: Providencia rettgeri (n=12)
Staphylococcus aureus = test: MIC by NCCLS reference broth microdilution, 450 respiratory tract pathogens
[2] = β-lactamase positive and erythromycin resistant (n = 10)

Structure (SMILES): N[C@@H]1[C@H]2CN(c3nc4c(cc3F)c(=O)c(C(=O)O)cn4-c3ccc(F)cc3F)C[C@@H]12 [Trovafloxacin, trovafloxacin]
- MIC50 (Escherichia coli; Escherichia coli): 0.06 µg/mL (≈ 0.144 µM)
- MIC90 (Escherichia coli; Escherichia coli): 0.25 µg/mL (≈ 0.6 µM)
- MIC Range (Escherichia coli): ≤0.03 to 64 µg/mL
- MIC90 (Enterococcus faecalis): 8 µg/mL (≈ 19.2 µM)
- MIC Range (Enterococcus faecalis): ≤4 to 16000 ng/mL
- MIC [1]: 0.125 µg/mL (≈ 0.3 µM)
- MIC ([1]; Bacteroides eggerthii, ATCC27754, Bacteroides eggerthii ATCC27754, read-out: MIC): 0.5 µg/mL (≈ 1.2 µM)
- MIC ([1]; Bacteroides fragilis): 0.125 µg/mL (≈ 0.3 µM)
- MIC ([1]; Bacteroides fragilis GA-I0558): 0.125 µg/mL (≈ 0.3 µM)
- MIC ([1]; Bacteroides fragilis, ATCC25285): 0.125 µg/mL (≈ 0.3 µM)
- MIC ([1]; Bacteroides fragilis, Bacteroides fragilis GA-I7955, read-out: MIC): 0.25 µg/mL (≈ 0.6 µM)
- MIC ([1]; Bacteroides fragilis, Bacteroides fragilis GAI10150, read-out: MIC): 0.25 µg/mL (≈ 0.6 µM)
- MIC ([1]; Bacteroides fragilis, Bacteroides fragilis GAI30079, read-out: MIC): 0.5 µg/mL (≈ 1.2 µM)
- MIC ([1]; Bacteroides fragilis, Bacteroides fragilis GAI30144, read-out: MIC): 0.25 µg/mL (≈ 0.6 µM)
- MIC ([1]; Bacteroides fragilis, NCTC10581, Bacteroides fragilis NCTC10581, read-out: MIC): 0.25 µg/mL (≈ 0.6 µM)
- MIC ([1]; Bacteroides ovatus, ATCC8483, Bacteroides ovatus ATCC8483, read-out: MIC): 0.5 µg/mL (≈ 1.2 µM)
- MIC ([1]; Bacteroides thetaiotaomicron, ATCC29741, Bacteroides thetaiotaomicron ATCC29741, read-out: MIC): 0.5 µg/mL (≈ 1.2 µM)
- MIC ([1]; Bilophilla wadsworthia WAL7959, read-out: MIC): 0.5 µg/mL (≈ 1.2 µM)
- MIC ([1]; Campylobacter gracilis, JCM8538, Campylobacter gracilis JCM8538, read-out: MIC): ≤ 0.03 µg/mL
- MIC ([1]; Campylobacter ureolyticus, NCTC10941, Bacteroides ureolyticus NCTC10941, read-out: MIC): ≤ 0.03 µg/mL
- MIC ([1]; Capnocytophaga ochracea, Capnocytophaga ochracea GAI5586, read-out: MIC): ≤ 0.03 µg/mL
- MIC ([1]; Fusobacterium necrophorum, ATCC25286, Fusobacterium necrophorum ATCC25286, read-out: MIC): 0.25 µg/mL (≈ 0.6 µM)
- MIC ([1]; Fusobacterium nucleatum, ATCC25586, Fusobacterium nucleatum ATCC25586, read-out: MIC): 0.5 µg/mL (≈ 1.2 µM)
- MIC ([1]; Fusobacterium varium, ATCC8501, Fusobacterium varium ATCC8501, read-out: MIC): 4 µg/mL (≈ 9.61 µM)
- MIC ([1]; Hoylesella oralis, ATCC33269, Prevotella oralis ATCC33269, read-out: MIC): 2 µg/mL (≈ 4.8 µM)
- MIC ([1]; Parabacteroides distasonis, ATCC8503, Bacteroides distasonis ATCC8503, read-out: MIC): 0.5 µg/mL (≈ 1.2 µM)
- MIC ([1]; Phocaeicola vulgatus, ATCC8482, Bacteroides vulgatus ATCC8482, read-out: MIC): 0.5 µg/mL (≈ 1.2 µM)
- MIC ([1]; Porphylomonas gingivalis ATCC33277, read-out: MIC): ≤ 0.03 µg/mL
- MIC ([1]; Porphyromonas asaccharolytica, ATCC25260): 0.125 µg/mL (≈ 0.3 µM)
- MIC ([1]; Prevotella bivia, ATCC29303, Prevotella bivia ATCC29303, read-out: MIC): 2 µg/mL (≈ 4.8 µM)
- MIC ([1]; Prevotella buccaeATCC33574, read-out: MIC): 0.5 µg/mL (≈ 1.2 µM)
- MIC ([1]; Prevotella heparinolytica, ATCC35895): 0.125 µg/mL (≈ 0.3 µM)
- MIC ([1]; Sutterella wadsworthensis, ATCC51579, Sutterella wadsworthensis ATCC51579, read-out: MIC): 0.25 µg/mL (≈ 0.6 µM)
- MIC ([1]; Veillonella dispar, ATCC17748): 0.125 µg/mL (≈ 0.3 µM)
- MIC ([1]; Veillonella parvula, ATCC10790, Veillonella parvula ATCC10790, read-out: MIC): 0.25 µg/mL (≈ 0.6 µM)
- MIC (Moraxella catarrhalis; Moraxella catarrhalis (n = 50)): 0.00375 to 0.06 µg/mL (≈ 0.00901 to 0.144 µM)
- MIC50 (Moraxella catarrhalis; Moraxella catarrhalis (n = 50)): 0.015 µg/mL (≈ 0.036 µM)
- MIC90 (Moraxella catarrhalis; Moraxella catarrhalis (n = 50)): 0.06 µg/mL (≈ 0.144 µM)
- MIC (Moraxella catarrhalis; β-lactamase negative (n = 13)): 0.00375 to 0.06 µg/mL (≈ 0.00901 to 0.144 µM)
- MIC50 (Moraxella catarrhalis; β-lactamase negative (n = 13)): 0.0075 µg/mL (≈ 0.018 µM)
- MIC90 (Moraxella catarrhalis; β-lactamase negative (n = 13)): 0.036 µg/mL (≈ 0.0865 µM)
- MIC (Moraxella catarrhalis; β-lactamase positive (n = 37)): 0.00375 to 0.06 µg/mL (≈ 0.00901 to 0.144 µM)
- MIC50 (Moraxella catarrhalis; β-lactamase positive (n = 37)): 0.015 µg/mL (≈ 0.036 µM)
- MIC90 (Moraxella catarrhalis; β-lactamase positive (n = 37)): 0.03 µg/mL (≈ 0.0721 µM)
- MIC (Salmonella spp.; S. hadar(2), isolates with MICs for ciprofloxacin ≥[…], read-out: MIC): 0.5 mg/L (≈ 1.2 µM)
- MIC (Salmonella spp.; S. newport(1), isolate with MIC for ciprofloxacin ≥[…], read-out: MIC): 0.5 mg/L (≈ 1.2 µM)
- MIC (Salmonella spp.; S. virchow(2), isolates with MICs for ciprofloxacin ≥[…], read-out: MIC): 0.25 mg/L (≈ 0.6 µM)
- MIC (mg/L) Range (Salmonella spp.; Salmonella spp. N= 106): ≤0.015 to 1 mg/L
- MIC (Salmonella spp.; Salmonella, S. tshiongwe(1), isolate with MIC for ciprofloxacin ≥[…], read-out: MIC): 1 mg/L (≈ 2.4 µM)
- MIC (Salmonella spp.; Salmonella, read-out: MIC (mg/L) 50%, Salmonella spp. N= 106): 0.06 mg/L (≈ 0.144 µM)
- MIC (Salmonella spp.; Salmonella, read-out: MIC (mg/L) 90%, Salmonella spp. N= 106): 0.25 mg/L (≈ 0.6 µM)
- % Susceptible (Shigella spp.): 100%
- MIC50 (Shigella spp.): ≤ 0.015 µg/mL
- MIC90 (Shigella spp.): ≤ 0.015 µg/mL
- MIC Range (Shigella spp.): ≤0.015 µg/mL
- MIC90 (Providencia rettgeri): 8 µg/mL (≈ 19.2 µM)
- MIC Range (Providencia rettgeri): 0.125 to 8 µg/mL
- MIC50 (Providencia rettgeri; read-out: MIC50): 0.25 µg/mL (≈ 0.6 µM)
- MIC (Staphylococcus aureus; Staphylococcus aureus (n = 50)): 0.00375 to 0.5 µg/mL (≈ 0.00901 to 1.2 µM)
- MIC50 (Staphylococcus aureus; Staphylococcus aureus (n = 50)): 0.12 µg/mL (≈ 0.288 µM)
- MIC90 (Staphylococcus aureus; Staphylococcus aureus (n = 50)): 0.25 µg/mL (≈ 0.6 µM)
- MIC (Staphylococcus aureus; β-lactamase negative (n = 20)): 0.00375 to 0.25 µg/mL (≈ 0.00901 to 0.6 µM)
- MIC50 (Staphylococcus aureus; β-lactamase negative (n = 20)): 0.12 µg/mL (≈ 0.288 µM)
- MIC90 (Staphylococcus aureus; β-lactamase negative (n = 20)): 0.25 µg/mL (≈ 0.6 µM)
- MIC (Staphylococcus aureus; β-lactamase positive (n = 20)): 0.06 to 0.5 µg/mL (≈ 0.144 to 1.2 µM)
- MIC50 (Staphylococcus aureus; β-lactamase positive (n = 20)): 0.12 µg/mL (≈ 0.288 µM)
- MIC90 (Staphylococcus aureus; β-lactamase positive (n = 20)): 0.25 µg/mL (≈ 0.6 µM)
- MIC (Staphylococcus aureus; [2]): 0.00375 to 0.25 µg/mL (≈ 0.00901 to 0.6 µM)
- MIC50 (Staphylococcus aureus; [2]): 0.12 µg/mL (≈ 0.288 µM)
